Experimental data: patent US20210346315A1, “COMPOSITION FOR INHIBITION OR TREATMENT OF BRAIN TUMORS OR SYMPTOMS ATTRIBUTABLE THERETO” (ENEOS Corporation, priority 2018, published 2021)

Columns and labels:
[1] = test system: mouse-derived glioma cell line GL261; assay: Cell proliferative capacity / cell viability of mouse-derived glioma cell line GL261 (CCK-8); format: cell-based; details: for average value of cell viability, concentration dependence: 0.1 to 10 μM; for cell viability (proliferation) vs the control group: GL261, after 96 hours, 0.1, 1.0, 5 or 10 μM
Protocol: (§1) As the glioma cell lines, the mouse-derived glioma cell line GL261 (transferred from Graduate School of Health Sciences, Gunma University) and the human-derived glioma cell line U251MG (DS Pharma Biomedical Co., Ltd.) were used. First, the glioma cell lines were seeded in a 96-well plate (FALCON) at 2,000 cells/well. Using Dulbecco's modified Eagle's medium (DMEM) (Nacalai Tesque, Inc.) containing 10% fetal bovine serum (FBS) (Valeant Pharmaceuticals International, Inc.), 100 U/mL penicillin, and 100 μg/mL streptomycin (Meiji Seika Pharma Co., Ltd.), seeded cells were cultured for 24 hours at 37° C. under 5% CO2. Then, the medium was replaced with DMEM containing 10% FBS so that the concentration was 90 μL/well. After the medium replacement, a test solution was further added according to each test group. Specifically, in the control group, 10 μL of PBS containing 0.1% DMSO (Nacalai Tesque, Inc.) was added (n=6). In the temozolomide group, temozolomide (Tokyo Chemical Industry Co., Ltd.) was dissolved in PBS containing 0.1% DMSO to obtain a temozolomide solution. Then, 10 μL of the temozolomide solution was added so that the final concentration of temozolomide was 300 μM (n=6). In the astaxanthin and adonixanthin groups, astaxanthin or adonixanthin was dissolved in PBS containing 0.1% DMSO to obtain an astaxanthin or adonixanthin solution. Then, 10 μL each of the astaxanthin or adonixanthin solution was added so that the final concentration of astaxanthin or adonixanthin was 0.1, 1.0, 5, or 10 μM (n=6). At 72 hours and 96 hours after addition of each test solution, the viable cell count of GL261 and U251MG was measured using cell counting kit-8 (CCK-8) (DOJINDO LABORATORIES). Specifically, using a microplate reader (Varioscan Flash 2.4, Thermo Fisher Scientific K.K.) at the time of addition and 2 hours after addition of CCK-8, the absorbance was measured at 450 nm, and the viable cell count was measured using the absorbance at 650 nm as a reference. For example, in the case of 72-hour treatment, CCK-8 was added 70 hours after addition of the test solution, and the absorbance was measured. The absorbance was measured again 2 hours after addition of CCK-8. The value obtained by subtracting the absorbance immediately after addition of CCK-8 as the background from the absorbance 2 hours after addition of CCK-8 was used as data. In the same manner as in Test Example 1, effects of adonirubin or zeaxanthin on the cell proliferative capacity after 72 hours of a human- or mouse-derived glioma cell line were investigated. As adonirubin, the adonirubin obtained in Preparation Example 1 was used, and as zeaxanthin, Zeaxanthin (manufacturer code ASB-00026504, ChromaDex Corporation) was used. Specifically, the glioma cell lines were seeded in a 96-well plate at 2,000 cells/well. Using DMEM containing 10% FBS, 100 U/mL penicillin, and 100 μg/mL streptomycin, seeded cells were cultured for 24 hours at 37° C. under 5% CO2. Then, the medium was replaced with DMEM containing 10% FBS so that the concentration was 90 μL/well. After the medium replacement, a test solution was further added according to each test group. Specifically, in the control group, 10 μL of PBS containing 0.1% DMSO (Nacalai Tesque, Inc.) was added (n=6). In the temozolomide group, temozolomide was dissolved in PBS containing 0.1% DMSO to obtain a temozolomide solution. Then, 10 μL of the temozolomide solution was added so that the final concentration of temozolomide was 300 μM (n=6). In the adonirubin and zeaxanthin groups, adonirubin or zeaxanthin was dissolved in PBS containing 0.1% DMSO to obtain an adonirubin or zeaxanthin solution. Then, 10 μL each of the adonirubin or zeaxanthin solution was added so that the final concentration of adonirubin or zeaxanthin was 0.1, 1.0, 5, or 10 μM (n=6). At 72 hours after addition of each test solution, the cell proliferative capacity of GL261 and U251MG was evaluated using CCK-8 in the same manner as in Test Example 1.

[2] = test system: human-derived glioma cell line U251MG; assay: Cell proliferative capacity / cell viability of human-derived glioma cell line U251MG (CCK-8); format: cell-based; details: for cell viability (proliferation) vs the control group: after 96 hours, 0.1, 1.0, 5 or 10 μM
Protocol: as §1

[3] = Intracerebral distribution of astaxanthin or adonixanthin in cynomolgus monkey (HPLC of brain organs); format: in vivo; details: 50 mg/kg body weight once daily for 10 days into the stomach, FIG. 5
Protocol: Each of the astaxanthin and the adonixanthin obtained in Preparation Example 1 was weighed, followed by suspension by adding olive oil (product number 150-00276, manufactured by Wako Pure Chemical Industries, Ltd.) to prepare so that each concentration was 10 mg/mL, thus obtaining an astaxanthin dosing solution and an adonixanthin dosing solution. Each dosing solution was prepared at the time of use, and stored on ice and protected from light until administration.
As experimental animals, cynomolgus monkeys were used. […] The dose in each administration was calculated based on the latest body weight at each administration time point (body weight was measured using an electric balance (HP-40K or GP-40K, both of which were manufactured by A&D Company, Limited) on each of the day of initiation of acclimation, the day of end of acclimation, the day of initiation of administration, and before administration on the day 8 of administration). […]
Each of the concentration of adonixanthin in each organ collected from the adonixanthin-administering monkey (concentration relative to the weight of each organ) and the concentration of astaxanthin in each organ collected from the astaxanthin-administering monkey (concentration relative to the weight of each organ) was measured. […]

[4] = GL261, after 72 hours, all concentrations (0.1, 1.0, 5 or 10 μM)
[5] = after 72 hours, 0.1, 1.0, 5 or 10 μM
[6] = GL261, after 72 hours, 10 μM group

Q: Which “proliferation inhibition compared with the zeaxanthin group” value ([1]; GL261, after 72 hours) does the source give for `CC1=C(/C=C/C(C)=C/C=C/C(C)=C/C=C/C=C(C)/C=C/C=C(C)/C=C/C2=C(C)C(=O)C(O)CC2(C)C)C(C)(C)CCC1=O` (stereo not drawn) [adonirubin, 3-hydroxy-β,β-carotene-4,4′-dione] here?
A: inhibited at a higher level

Q: What about the “cell proliferative capacity vs the control group” value [1, 4] of the same molecule?
A: significantly inhibited at any concentration

Q: What about the “cell proliferative capacity vs the control group” value [2, 5] of the same molecule?
A: tends to be inhibited at any concentration

Q: Which “average value of cell viability, concentration dependence” value ([1]; GL261, after 72 hours) does the source give for `CC1=C(/C=C/C(C)=C/C=C/C(C)=C/C=C/C=C(C)/C=C/C=C(C)/C=C/C2=C(C)C(=O)C(O)CC2(C)C)C(C)(C)CC(O)C1` (stereo not drawn) [adonixanthin, 3,3′-dihydroxy-β,β-carotene-4-one] here?
A: tends to concentration-dependently decrease

Q: What about the “cell proliferative capacity vs the control group” value [1, 4] of the same molecule?
A: significantly inhibited

Q: What about the “cell viability (proliferation) vs the control group” value ([1]; FIG. 2) of the same molecule?
A: significantly inhibited at any concentration

Q: And the “proliferation inhibition compared with the astaxanthin group” value ([1]; GL261, after 96 hours, FIG. 2)?
A: inhibited at a higher level

Q: And the “cell proliferative capacity vs the control group” value [2, 5]?
A: tends to be concentration-dependently inhibited

Q: What about the “cell proliferative capacity vs the control group” value ([2]; after 72 hours, 1, 5, and 10 μM groups) of the same molecule?
A: significantly inhibited

Q: And the “cell viability (proliferation) vs the control group” value ([2]; FIG. 1)?
A: significantly inhibited at any concentration

Q: And the “proliferation inhibition compared with the astaxanthin group” value ([2]; after 96 hours, FIG. 1)?
A: inhibited at a higher level

Q: What about the “concentration in the brain compared with astaxanthin” value [3] of the same molecule?
A: transferred into the brain at a higher concentration

Q: What about the “concentration in each organ of the brain (transfer into the brain and retention)” value ([3]; organs collected after blood sampling 4 hours after last administration) of the same molecule?
A: transferred into the brain at a high concentration

Q: What does the source list for `CC1=C(/C=C/C(C)=C/C=C/C(C)=C/C=C/C=C(C)/C=C/C=C(C)/C=C/C2=C(C)C(=O)C(O)CC2(C)C)C(C)(C)CC(O)C1=O` (stereo not drawn) [astaxanthin, 3,3′-dihydroxy-β,β-carotene-4,4′-dione]?
A: cell proliferative capacity vs the control group [1, 6]: significantly inhibited; average value of cell viability, concentration dependence ([1]; GL261, after 72 hours): tends to concentration-dependently decrease; cell viability (proliferation) vs the control group ([1]; FIG. 2): significantly inhibited at any concentration; cell proliferative capacity vs the control group [2, 5]: tends to be concentration-dependently inhibited; cell viability (proliferation) vs the control group ([2]; FIG. 1): significantly inhibited at any concentration

Q: Which “cell proliferative capacity vs the control group” value [1, 6] does the source give for `CC1=C(/C=C/C(C)=C/C=C/C(C)=C/C=C/C=C(C)/C=C/C=C(C)/C=C/C2=C(C)C[C@@H](O)CC2(C)C)C(C)(C)C[C@H](O)C1` [zeaxanthin, β,β-carotene-3,3′-diol] here?
A: significantly inhibited

Q: And the “cell proliferative capacity vs the control group” value [1, 4]?
A: tends to be inhibited at any concentration

Q: What about the “proliferation inhibition compared with the adonirubin group” value ([2]; after 72 hours) of the same molecule?
A: inhibited at a higher level

Q: And the “cell proliferative capacity vs the control group” value [2, 5]?
A: significantly inhibited at any concentration
